Legend:
Details in all cases: main component drawn
B. subtilis 168 [1] = test: fitness (endpoint OD595 vs no drug) (fraction); higher = more growth
How it was run: (§1)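 Fitness compares growth at the stationary-phase transition with the robust mean of no-drug control wells, as a ratio of optical densities. The ratio is capped at 1. Wells of 384-well plates held 30 µl, or 55 µl for S. pneumoniae, inoculated at OD595 0.01. Readings at OD595 every 30 min for 14 h at 37 °C were corrected against the first reading.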

S. aureus Newman [2] = test: as above
How it was run: as §1

S. pneumoniae D39V [3] = test: as above
How it was run: as §1

B. subtilis 168 [4] = test: Bliss interaction score (quartile over a dose matrix) (fitness difference); higher = more antagonism (negative = synergy)
How it was run: (§2)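 Fitness was defined as normalised growth: OD595 at the start of stationary phase divided by the plate's robust no-drug mean and capped at 1. Single-drug fitness was inferred from combination measurements. The Bliss score is observed fitness minus the product of the single-drug values, summarised by quartiles across technical, biological and donor/recipient replicates.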

S. aureus DSM 20231 = test: as above
How it was run: as §2

S. aureus Newman [5] = test: as above
How it was run: as §2

S. pneumoniae D39V [6] = test: as above
How it was run: as §2
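Throughout, for Bliss interaction score (quartile over a dose matrix): first quartile when negative (synergy) and third quartile when positive (antagonism).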
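Throughout, for fitness (endpoint OD595 vs no drug): OD595 on entry to stationary phase over no-drug wells; at most 1.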

CO/N=C(\C(=O)N[C@@H]1C(=O)N2C(C(=O)O)=C(COC(C)=O)CS[C@H]12)c1csc(N)n1 [Cefotaxime] + CC(C1CCC(C(O1)OC2C(CC(C(C2O)OC3C(C(C(CO3)(C)O)NC)O)N)N)N)NC [Gentamicin]
one replicate
Details	fitness
B. subtilis 168 [1], first compound 0.00775 µg/mL, partner 0.0625 µg/mL	0.66
B. subtilis 168 [1], first compound 0.00775 µg/mL, partner 0.125 µg/mL	0.0541
B. subtilis 168 [1], first compound 0.00775 µg/mL, partner 0.25 µg/mL	0.0723
B. subtilis 168 [1], first compound 0.0155 µg/mL, partner 0.0625 µg/mL	0.16
B. subtilis 168 [1], first compound 0.0155 µg/mL, partner 0.125 µg/mL	0.0431
B. subtilis 168 [1], first compound 0.0155 µg/mL, partner 0.25 µg/mL	0.0419
B. subtilis 168 [1], first compound 0.031 µg/mL, partner 0.0625 µg/mL	0.0439
B. subtilis 168 [1], first compound 0.031 µg/mL, partner 0.125 µg/mL	0.0439
B. subtilis 168 [1], first compound 0.031 µg/mL, partner 0.25 µg/mL	0.0452
B. subtilis 168 [1], first compound 0.0625 µg/mL, partner 0.0625 µg/mL	0.754
B. subtilis 168 [1], first compound 0.0625 µg/mL, partner 0.125 µg/mL	0.701
B. subtilis 168 [1], first compound 0.0625 µg/mL, partner 0.25 µg/mL	0.155
B. subtilis 168 [1], first compound 0.125 µg/mL, partner 0.0625 µg/mL	0.65
B. subtilis 168 [1], first compound 0.125 µg/mL, partner 0.125 µg/mL	0.449
B. subtilis 168 [1], first compound 0.125 µg/mL, partner 0.25 µg/mL	0.103
B. subtilis 168 [1], first compound 0.25 µg/mL, partner 0.0625 µg/mL	0.581
B. subtilis 168 [1], first compound 0.25 µg/mL, partner 0.125 µg/mL	0.22
B. subtilis 168 [1], first compound 0.25 µg/mL, partner 0.25 µg/mL	0.129
S. aureus Newman [2], first compound 0.039 µg/mL, partner 0.5 µg/mL	0.79
S. aureus Newman [2], first compound 0.039 µg/mL, partner 1 µg/mL	0.857
S. aureus Newman [2], first compound 0.039 µg/mL, partner 2 µg/mL	0.951
S. aureus Newman [2], first compound 0.078 µg/mL, partner 0.375 µg/mL	0.757
S. aureus Newman [2], first compound 0.078 µg/mL, partner 0.5 µg/mL	0.821
S. aureus Newman [2], first compound 0.078 µg/mL, partner 0.75 µg/mL	0.772
S. aureus Newman [2], first compound 0.078 µg/mL, partner 1 µg/mL	0.8
S. aureus Newman [2], first compound 0.078 µg/mL, partner 1.5 µg/mL	0.759
S. aureus Newman [2], first compound 0.078 µg/mL, partner 2 µg/mL	0.977
S. aureus Newman [2], first compound 0.156 µg/mL, partner 0.375 µg/mL	0.52
S. aureus Newman [2], first compound 0.156 µg/mL, partner 0.5 µg/mL	0.744
S. aureus Newman [2], first compound 0.156 µg/mL, partner 0.75 µg/mL	0.533
S. aureus Newman [2], first compound 0.156 µg/mL, partner 1 µg/mL	0.763
S. aureus Newman [2], first compound 0.156 µg/mL, partner 1.5 µg/mL	0.595
S. aureus Newman [2], first compound 0.156 µg/mL, partner 2 µg/mL	0.872
S. aureus Newman [2], first compound 0.312 µg/mL, partner 0.375 µg/mL	0.345
S. aureus Newman [2], first compound 0.312 µg/mL, partner 0.75 µg/mL	0.389
S. aureus Newman [2], first compound 0.312 µg/mL, partner 1.5 µg/mL	0.399
S. aureus Newman [2], first compound 0.625 µg/mL, partner 0.375 µg/mL	0.0576
S. aureus Newman [2], first compound 0.625 µg/mL, partner 0.75 µg/mL	0.0523
S. aureus Newman [2], first compound 0.625 µg/mL, partner 1.5 µg/mL	0.0345
S. aureus Newman [2], first compound 1.25 µg/mL, partner 0.375 µg/mL	0.0504
S. aureus Newman [2], first compound 1.25 µg/mL, partner 0.75 µg/mL	0.0617
S. aureus Newman [2], first compound 1.25 µg/mL, partner 1.5 µg/mL	0.0569
S. aureus Newman [2], first compound 2.5 µg/mL, partner 0.375 µg/mL	0.0422
S. aureus Newman [2], first compound 2.5 µg/mL, partner 0.75 µg/mL	0.074
S. aureus Newman [2], first compound 2.5 µg/mL, partner 1.5 µg/mL	0.0764

Details	fitness
B. subtilis 168 [1], first compound 0.5 µg/mL, partner 0.0625 µg/mL	0.155
B. subtilis 168 [1], first compound 0.5 µg/mL, partner 0.125 µg/mL	0.055
B. subtilis 168 [1], first compound 0.5 µg/mL, partner 0.25 µg/mL	0.0842
B. subtilis 168 [1], first compound 1 µg/mL, partner 0.0625 µg/mL	0.0509
B. subtilis 168 [1], first compound 1 µg/mL, partner 0.125 µg/mL	0.04
B. subtilis 168 [1], first compound 1 µg/mL, partner 0.25 µg/mL	0.0527
B. subtilis 168 [1], first compound 2 µg/mL, partner 0.0625 µg/mL	0.0909
B. subtilis 168 [1], first compound 2 µg/mL, partner 0.125 µg/mL	0.0759
B. subtilis 168 [1], first compound 2 µg/mL, partner 0.25 µg/mL	0.0872
S. aureus Newman [2], first compound 0.625 µg/mL, partner 0.5 µg/mL	0.389
S. aureus Newman [2], first compound 0.625 µg/mL, partner 1 µg/mL	0.44
S. aureus Newman [2], first compound 0.625 µg/mL, partner 2 µg/mL	0.397
S. aureus Newman [2], first compound 1.25 µg/mL, partner 0.5 µg/mL	0.0594
S. aureus Newman [2], first compound 1.25 µg/mL, partner 1 µg/mL	0.0679
S. aureus Newman [2], first compound 1.25 µg/mL, partner 2 µg/mL	0.0372
S. aureus Newman [2], first compound 2.5 µg/mL, partner 0.5 µg/mL	0.0199
S. aureus Newman [2], first compound 2.5 µg/mL, partner 1 µg/mL	0.0366
S. aureus Newman [2], first compound 2.5 µg/mL, partner 2 µg/mL	0.0507
S. pneumoniae D39V [3], first compound 0.0018 µg/mL, partner 2 µg/mL	0.999
S. pneumoniae D39V [3], first compound 0.0018 µg/mL, partner 4 µg/mL	0.988
S. pneumoniae D39V [3], first compound 0.0018 µg/mL, partner 8 µg/mL	0.971
S. pneumoniae D39V [3], first compound 0.0035 µg/mL, partner 2 µg/mL	0.967
S. pneumoniae D39V [3], first compound 0.0035 µg/mL, partner 4 µg/mL	0.956
S. pneumoniae D39V [3], first compound 0.0035 µg/mL, partner 8 µg/mL	0.917
S. pneumoniae D39V [3], first compound 0.007 µg/mL, partner 2 µg/mL	0.895
S. pneumoniae D39V [3], first compound 0.007 µg/mL, partner 4 µg/mL	0.896
S. pneumoniae D39V [3], first compound 0.007 µg/mL, partner 8 µg/mL	0.867

Details	Bliss interaction score
B. subtilis 168 [4]	-0.0898
S. aureus DSM 20231	0.0541
S. aureus Newman [5]	0.0788
S. pneumoniae D39V [6]	0.0656

— the supplement of paper PMC10627819
